Measurements: patent US8435956B2, “Compositions and methods for protecting cells from toxic exposures” (Percitus Biosciences, LLC, priority 2007, dated 2013)
Several values for one entry are separate records, joined by “and”; a condition that tells them apart may be missing. Equal values may be shown once.

What was measured:
[1] = biological target: T1, Calf intestinal alkaline phosphatase (CIAP) (Bos taurus, UniProt P19111); assay: Alkaline phosphatase dephosphorylation, free sulfhydryl groups measured with DTNB (Ellman's Reagent) at A412; assay type: biochemical
T1 construct: purchased Sigma
Method: Assays were performed to verify the ability of alkaline phosphatase to dephosphorylate compound (7) to create sulfydryl reactive groups. Calf intestinal alkaline phosphatase (CIAP, Sigma) was diluted in phosphate buffered saline (PBS) to 250 units/ml, and frozen in tubes containing 100 μl aliquots.
A second assay was performed to examine the ability of alkaline phosphatase to dephosphorylate compound (7) to create sulfydryl reactive groups. A 12.5 mM solution of Compound 7 was made (4 mg/ml) and used in the test reactions.
A time course of dephosphorylation was also performed using Compound 7, following the same reaction conditions as in Table 3.

[2] = randomized Phase III human trials: head and neck cancer, lung cancer, carboplatin myelosuppression, rectal cancer; cited from earlier work
mice = settings: doses up to 5 mmoles/animal
HepG2 = system: HepG2
Method: The compound ((S)-ethyl 2-amino-5-((R)-1-ethoxy-1-oxo-3-(phosphonothio)propan-2-ylamino)-5-oxopentanoate monosodium salt) was tested for intracellular properties. In particular, experiments were conducted to determine the ability of the compound to enter into cells and generate glutathione. HepG2 were incubated with the compound with or without added bovine intestinal alkaline phosphatase (Sigma). Cells were scraped into SSA, vortexed and then spun.

hamsters = settings: doses up to 5 mmoles/animal
[3] = co-administration of reduced glutathione, clinical trial; cited from earlier work

T1 sequence (P19111 20-506): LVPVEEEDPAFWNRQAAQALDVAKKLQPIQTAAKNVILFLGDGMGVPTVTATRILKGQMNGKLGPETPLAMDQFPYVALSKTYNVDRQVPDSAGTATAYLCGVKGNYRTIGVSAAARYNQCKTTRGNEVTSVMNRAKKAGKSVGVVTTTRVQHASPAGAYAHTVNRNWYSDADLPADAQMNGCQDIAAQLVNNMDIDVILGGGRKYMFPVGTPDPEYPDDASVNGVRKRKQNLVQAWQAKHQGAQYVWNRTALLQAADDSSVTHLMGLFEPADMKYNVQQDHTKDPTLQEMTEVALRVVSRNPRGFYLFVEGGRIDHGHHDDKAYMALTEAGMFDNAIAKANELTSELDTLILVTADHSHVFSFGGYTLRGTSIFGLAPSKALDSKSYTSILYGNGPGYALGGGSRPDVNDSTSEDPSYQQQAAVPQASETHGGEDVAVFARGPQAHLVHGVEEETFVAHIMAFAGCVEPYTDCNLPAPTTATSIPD

NCCCNCCSP(=O)(O)O [AF, S-2-(3-aminopropylamino)ethylphosphorothioic acid, reference compound]
A412 ([1]; reaction 2: 10 μl 5 mM AF, 890 μl PBS, no CIAP, no DTNB, 10 min room temperature): 0.00
A412 ([1]; reaction 3: 10 μl 5 mM AF, 25 μl CIAP, 865 μl PBS, no DTNB, 10 min room temperature): 0.00
A412 ([1]; reaction 4: 20 μl 5 mM AF, 50 μl CIAP (so in the source), 100 μl DTNB, 880 μl PBS, 10 min room temperature): 0.03
A412 ([1]; reaction 5: 20 μl 5 mM AF, 50 μl CIAP, 100 μl DTNB, 830 μl PBS, 10 min room temperature): 0.34
toxicity of chemotherapy and radiation therapy [2]: reduce toxicity

CCOC(=O)[C@H](CSP(=O)([O-])O)NC(=O)CC[C@H](N)C(=O)OCC.[Na+] [Compound 7, (S)-ethyl 2-amino-5-((R)-1-ethoxy-1-oxo-3-(phosphonothio)propan-2-ylamino)-5-oxopentanoate monosodium salt]
time course of dephosphorylation (free sulfhydryl groups) ([1]; 30 min. period, A412 readings at 3 min. intervals, conditions as in Table 3): time dependent
dephosphorylation by alkaline phosphatase ([1]; conclusion from Table 3): dephosphorylated by alkaline phosphatase to yield free reactive sulfhydryl groups
A412 ([1]; with CIAP (50 μl): 10 μl 12.5 mM C7, 100 μl DTNB, 840 μl PBS, 10 min 37° C., listed as C7, monosodium salt): 0.547 and 0.526
A412 ([1]; without CIAP (negative reaction): 10 μl 12.5 mM C7, 100 μl DTNB, 890 μl PBS, 10 min 37° C., listed as C7, monosodium salt): 0.044 and 0.039
overt toxicity (mice): no overt toxicity
increase in cellular GSH (HepG2; HepG2, compound and alkaline phosphatase, in the presence of buthionine sulfoximine): greater than 5 fold
entry into cells (HepG2; HepG2, without prior hydrolysis of the phosphate group by alkaline phosphatase): did not enter cells
toxicity to cells (HepG2; HepG2 incubated with compound with or without alkaline phosphatase): did not exhibit any evidence of toxicity
increase in GSH contents (HepG2; HepG2 treated with the compound and alkaline phosphatase): 3.6 fold
overt toxicity (hamsters): no overt toxicity

N[C@@H](CCC(=O)N[C@@H](CS)C(=O)NCC(=O)O)C(=O)O [GSH, glutathione, reference compound]
neuropathy seen with oxaliplatin [3]: significantly reduce the neuropathy
A412 ([1]; reaction 1, positive control: 10 μl 2 mM GSH, 100 μl DTNB, 890 μl PBS, no CIAP, 5 min room temperature): 0.35
